From patent US20230331803A1, “CO-AGONISTS OF THE GLP-1 AND AMYLIN RECEPTORS” (priority 2020, published 2023) come the findings set out here.

Read-outs that look alike come from different tables or passages of the source. Starred links: 1 amine or outer side, 2 acyl side, 3 side chain; linkers in the order of their positions; H or OH if unused. Non-standard residues stand in square brackets, D forms with d. Groups on a side chain read outwards from the residue. *: point of attachment. Decanoyl(10-(4-HOOC-PhO)) = O=C(O)c1ccc(OCCCCCCCCCC(=O)*)cc1; C20 diacid = O=C(O)CCCCCCCCCCCCCCCCCCC(=O)*; C18 diacid = O=C(O)CCCCCCCCCCCCCCCCC(=O)*; C16 diacid = O=C(O)CCCCCCCCCCCCCCC(=O)*; γGlu = O=C(O)[C@H](CCC(=O)[*:2])N[*:1]; εLys = N[C@@H](CCCCN[*:1])C(=O)[*:2]; Trx = NC[C@H]1CC[C@H](C(=O)O)CC1; AEEA = NCCOCCOCC(=O)O; Aib = CC(C)(N)C(=O)O

One experiment concerns the target T1, human GLP-1 receptor (Homo sapiens, UniProt P43220).
T1 construct: expressed in transfected cells; host or cells: BHK (Baby Hamster Kidney) cells, clone BHK 467-12A KZ-10, stably transfected, with CRE-luciferase reporter
The experiment in a line: Human GLP-1 receptor in vitro potency assay (CRE-luciferase reporter, BHK cells). It counts as cell-based.

Experiment [1] deals with T2, human amylin receptor (hAmyR3) (Homo sapiens, UniProt O60896+P30988).
T2 construct: host or cells: BHK cells (Hollex-1 line: human calcitonin receptor (a) + CRE-Luc), further transfected with human RAMP3
T2 sequence (P30988 25-474): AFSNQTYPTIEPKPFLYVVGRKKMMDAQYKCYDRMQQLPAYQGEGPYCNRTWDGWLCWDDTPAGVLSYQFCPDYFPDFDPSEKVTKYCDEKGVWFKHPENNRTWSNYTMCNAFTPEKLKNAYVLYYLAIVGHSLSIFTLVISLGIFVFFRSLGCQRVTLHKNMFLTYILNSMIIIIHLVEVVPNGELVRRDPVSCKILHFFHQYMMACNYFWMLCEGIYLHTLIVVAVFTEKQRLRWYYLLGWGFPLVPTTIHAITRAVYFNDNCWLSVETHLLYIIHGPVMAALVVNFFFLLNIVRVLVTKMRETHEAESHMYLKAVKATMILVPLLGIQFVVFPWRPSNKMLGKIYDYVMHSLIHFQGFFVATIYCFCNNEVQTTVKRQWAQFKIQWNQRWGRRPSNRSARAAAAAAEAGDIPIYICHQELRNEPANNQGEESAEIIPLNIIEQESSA
T2 sequence (O60896 24-148): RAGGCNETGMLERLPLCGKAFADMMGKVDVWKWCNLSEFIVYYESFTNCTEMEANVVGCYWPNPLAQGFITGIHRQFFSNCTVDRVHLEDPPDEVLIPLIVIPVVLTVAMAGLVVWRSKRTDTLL
The experiment in a line: Human amylin receptor in vitro potency assay (CRE-luciferase reporter, BHK cells).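 Further: BHK cells expressing human calcitonin receptor plus RAMP3 (amylin-3 receptor) with a CRE-luciferase reporter, agonist activity read as luminescence from cAMP-driven transcription, 7-point serial dilutions.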 It counts as cell-based. (In general: Reporter assays use an easily measured gene product as a stand-in for the process of interest.)

The mark [2] stands for this setting: Table 4a, BHK cells expressing human GLP-1R, CRE-Luc, 3 hours, read-out: Human GLP-1R potency [EC50 (pM)].
The mark [3] stands for this setting: Table 4a, BHK hAmyR3/CRE-Luc cells, 3 hours, read-out: Human AmyR3 potency [EC50 (pM)].

As usually defined, the EC50 is the concentration at which the effect is half-maximal.

T1 sequence (P43220 24-463): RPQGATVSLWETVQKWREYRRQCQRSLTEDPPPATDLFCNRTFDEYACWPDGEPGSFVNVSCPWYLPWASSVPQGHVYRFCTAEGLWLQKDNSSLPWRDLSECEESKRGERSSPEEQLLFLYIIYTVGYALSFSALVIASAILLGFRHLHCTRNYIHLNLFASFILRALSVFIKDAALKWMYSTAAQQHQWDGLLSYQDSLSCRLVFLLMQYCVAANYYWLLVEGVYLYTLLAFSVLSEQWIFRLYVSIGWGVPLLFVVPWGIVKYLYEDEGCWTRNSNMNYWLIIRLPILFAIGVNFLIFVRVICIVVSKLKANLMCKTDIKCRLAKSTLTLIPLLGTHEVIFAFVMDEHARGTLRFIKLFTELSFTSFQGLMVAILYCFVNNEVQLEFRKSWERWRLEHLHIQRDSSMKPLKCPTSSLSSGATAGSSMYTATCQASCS

On to “H-H[Aib]EGTFTSDVSSYLEK([AEEA-AEEA-γGlu-C16 diacid])QAAREFIAWLVRGRGGGGGASELSTAALGRLSK([AEEA-AEEA-γGlu-C16 diacid])ELHELATLPRTETGSGSP-NH2 [Compound 0294]”, for which the values for the EC50 (at human GLP-1 receptor (setting [2]); in experiment [1] (setting [3])) were 13.7 pM and 34.3 pM, respectively.
The like results for “H-H[Aib]EGTFTSK([AEEA-AEEA-γGlu-Trx-C20 diacid])VSSYLEEQAAREFIEWLVRGRGEASELSTAALGRLSAELHELATLPRTETGSGSP-NH2 [Compound 0417]” were, in that order, 97.8 pM and 21 pM.
On to “HAEGTFTSDVSSYLEEK([AEEA-AEEA-γGlu-C18 diacid])AAREFIEWLVRGRGEASELSTAALGRLSAELHELATLPRTETGSGSP-NH2 [Compound 0472]”, for which the values for the EC50 (on human GLP-1 receptor (setting [2]); in experiment [1] (setting [3])) were 2.8 pM and 24 pM, respectively.
As for “HGEGTFTSDVSSYLEEQAARK([AEEA-AEEA-γGlu-Decanoyl(10-(4-HOOC-PhO))])FIEWLVRGK([AEEA-AEEA-γGlu-Decanoyl(10-(4-HOOC-PhO))])GEGGGGGEASELSTAALGRLSAELHELATLPRTETGSGSP-NH2 [Compound 0097]”, the EC50 amounted to 10 pM on human GLP-1 receptor and 93.1 pM in experiment [1].
The like results for “HGEGTFTSDVSSYLEEQAARK([AEEA-AEEA-γGlu-Decanoyl(10-(4-HOOC-PhO))])FIEWLVRGK([AEEA-AEEA-γGlu-Decanoyl(10-(4-HOOC-PhO))])GEGGGGGGGGGEASELSTAALGRLSAELHELATLPRTETGSGSP-NH2 [Compound 0098]” were, in that order, 7.9 pM and 15.6 pM.
Regarding “HWEGTFTSD-K([2-[2-[2-[[2-[2-[2-[[(4S)-4-Carboxy-4-[[4-[(19-Carboxynonadecanoylamino)Methyl]Cyclohexanecarbonyl]Amino]Butanoyl]Amino]Ethoxy]Ethoxy]Acetyl]Amino]Ethoxy]Ethoxy]Acetyl])-SSYLEEQAAREFIEWLVRGRGEASELSTAALGRLSAELHELATLPRTETGSGSP-amide [Compound 0272]”, the EC50 stood at 9.2 pM on human GLP-1 receptor (setting [2]) and 11.3 pM in experiment [1] (setting [3]).
The like results for “HWEGTFTSD-K([(2S)-2-Amino-6-[[2-[2-[2-[[2-[2-[2-[[(4S)-4-Carboxy-4-[[4-[(19-Carboxynonadecanoylamino)Methyl]Cyclohexanecarbonyl]Amino]Butanoyl]Amino]Ethoxy]Ethoxy]Acetyl]Amino]Ethoxy]Ethoxy]Acetyl]Amino]Hex Anoyl])-SSYLEEQAAREFIEWLVRGRGEASELSTAALGRLSAELHELATLPRTETGSGSP-amide [Compound 0433]” were, in that order, 30.7 pM and 12.9 pM.
The like results for “HWEGTFTSDVSSYLEEK([AEEA-AEEA-γGlu-C18 diacid])AAREFIEWLVRGRGEASELSTAALGRLSAELHELATLPRTETGSGSP-NH2 [Compound 0271]” were, in that order, 4.6 pM and 15.2 pM.
In the same order, the values of “HWEGTFTSDVSSYLEEK([AEEA-AEEA-γGlu-C20 diacid])AAREFIEWLVRGRGEASELSTAALGRLSAELHELATLPRTETGSGSP-NH2 [Compound 0473]” are 3.1 pM and 16.2 pM.
In the case of “HWEGTFTSDVSSYLEEQAAREFIAWLVRGRK([AEEA-AEEA-γGlu-C18 diacid])GGGGEASELSTAALGRLSAELHELATLPRTETGSGSP-NH2 [Compound 0648]”, the EC50 on human GLP-1 receptor (setting [2]) is 17 pM; in experiment [1] (setting [3]), 9.2 pM.
For “HWEGTFTSDVSSYLEEQAARK([AEEA-AEEA-γGlu-Decanoyl(10-(4-HOOC-PhO))])FIEWLVRGK([AEEA-AEEA-γGlu-Decanoyl(10-(4-HOOC-PhO))])GEGEASELSTAALGRLSAELHELATLPRTETGSGSP-NH2 [Compound 0099]”, the EC50 at human GLP-1 receptor was determined as 9.6 pM; in experiment [1], 44.9 pM.
Regarding “HWEGTFTSDVSSYLEEQAARK([AEEA-AEEA-γGlu-Decanoyl(10-(4-HOOC-PhO))])FIEWLVRGK([AEEA-AEEA-γGlu-Decanoyl(10-(4-HOOC-PhO))])GEGGGGGGGGGEASELSTAALGRLSAELHELATLPRTETGSGSP-NH2 [Compound 0101]”, the results for the EC50 (on human GLP-1 receptor; in experiment [1]) were 7.1 pM and 10.2 pM, respectively.
For the substance “H[Aib]EGTFTSDVSSYLEEQAARK([AEEA-AEEA-γGlu-C16 diacid])FIAWLVRGK([AEEA-AEEA-γGlu-C16 diacid])GGGEASELSTAALGRLSAELHELATLPRTETGSGSP-NH2 [Compound 0076]”, the EC50 on human GLP-1 receptor (setting [2]) was 1.7 pM; in experiment [1] (setting [3]), 46.4 pM.
The like results for “H[Aib]EGTFTSDVSSYLEEQAARK([AEEA-AEEA-γGlu-C18 diacid])FIAWLVRGK([AEEA-AEEA-γGlu-C18 diacid])GGEASELSTAALGRLSAELHELATLPRTETGSGSP-NH2 [Compound 0127]” were, in that order, 7.1 pM and 63.9 pM.
The like results for “H[Aib]EGTFTSDVSSYLEEQAARK([AEEA-AEEA-γGlu-C18 diacid])FIAWLVRGK([AEEA-AEEA-γGlu-C18 diacid])GGGGGGGGGEASELSTAALGRLSAELHELATLPRTETGSGSP-NH2 [Compound 0109]” were, in that order, 3.2 pM and 19.1 pM.
As to “H[Aib]EGTFTSDVSSYLEEQAARK([εLys-AEEA-AEEA-γGlu-C18 diacid])FIAWLVRGK([εLys-AEEA-AEEA-γGlu-C18 diacid])GGGGGGGGGEASELSTAALGRLSAELHELATLPRTETGSGSP-NH2 [Compound 0110]”, the EC50 on human GLP-1 receptor was found to be 2.7 pM; in experiment [1] it was 40.7 pM.
